The first test concerns the target Steroid 5-α-Reductase. Put plainly: Steroid 5-α-reductase in vitro assay, rat prostate microsomes. The format is biochemical. The note with it: rat prostatic microsomes; 100 nM [3H]-testosterone, 1 mM NADPH, 60 minutes at 37° C.; read-out: ID50 Rat.
`CC(C)(C)NC(=O)[C@H]1CC[C@H]2[C@@H]3CNC4=CC(=O)CC[C@]4(C)[C@H]3CC[C@]12C` [Compound 3, 17β-N-t-Butylcarbamoyl-6-azaandrost-4-en-3-one]: the IC50 is 10 to 100 nM.

The target in the next test is T1, Steroid 5-α-Reductase (Homo sapiens, UniProt P31213).
T1 construct: microsomes derived from prostate tissue of benign prostatic hypertrophy (BPH) patients; from tissue; host or cells: prostate tissue of BPH patients, microsomes
T1 sequence (P31213 1-254): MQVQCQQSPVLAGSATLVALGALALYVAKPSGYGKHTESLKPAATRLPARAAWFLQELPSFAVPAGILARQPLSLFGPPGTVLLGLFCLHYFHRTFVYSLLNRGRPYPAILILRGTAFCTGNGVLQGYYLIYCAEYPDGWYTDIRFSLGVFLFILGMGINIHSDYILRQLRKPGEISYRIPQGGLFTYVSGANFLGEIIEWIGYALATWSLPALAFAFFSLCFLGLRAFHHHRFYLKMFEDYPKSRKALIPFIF
Briefly: Steroid 5-α-reductase in vitro assay, human prostate microsomes (BPH patients). The format is biochemical. The conditions noted are these: human prostatic microsomes; 100 nM [3H]-testosterone, 1 mM NADPH, 60 minutes at 37° C.
On to `CCC1=C2NC[C@H]3[C@@H]4CC[C@H](C(=O)N(CC)CC)[C@@]4(C)CC[C@@H]3[C@@]2(C)CCC1=O` [Compound 12, 17β-N,N-Diethylcarbamoyl-6-azaandrost-4-ethyl-4-en-3-one], for which the IC50 is 100 to 1000 nM.

The molecule `CCN(CC)C(=O)[C@H]1CC[C@H]2[C@@H]3CNC4=C(C#N)C(=O)CC[C@]4(C)[C@H]3CC[C@]12C` [Compound 13, 17β-N,N-Diethylcarbamoyl-6-azaandrost-4-cyano-4-en-3-one] registered an IC50 of 100 to 1000 nM.

In turn, `CCN(CC)C(=O)[C@H]1CC[C@H]2[C@@H]3CNC4=C(CN(C)C)C(=O)CC[C@]4(C)[C@H]3CC[C@]12C` [Compound 14, 17β-N,N-Diethylcarbamoyl-6-azaandrost-4-dimethylaminomethylene-4-en-3-one] gave an IC50 of 100 to 1000 nM.

`CCN(CC)C(=O)[C@H]1CC[C@H]2[C@@H]3CN(CCCO)C4=CC(=O)CC[C@]4(C)[C@H]3CC[C@]12C` [Compound 15, 17β-N,N-Diethylcarbamoyl-6-(3-hydroxypropyl)-6-azaandrost-4-en-3-one] had an IC50 of 100 to 1000 nM.

In turn, `CN1C[C@H]2[C@@H]3CC[C@H](C(=O)O)[C@@]3(C)CC[C@@H]2[C@@]2(C)CCC(=O)C=C12` [Compound 25, 17β-Carboxy-6-methyl-6-azaandrost-4-en-3-one] gave an IC50 of 100 to 1000 nM.

As for `C[C@]12CC[C@H]3[C@@H](CNC4=CC(=O)C=C[C@@]43C)[C@@H]1CC[C@@H]2C(=O)NC12CC3CC(CC(C3)C1)C2` [Compound 30, 17β-N-1-Adamantylcarbamoyl-6-azaandrost-1,4-dien-3-one], the IC50 is under 10 nM.

As to `CN1C[C@H]2[C@@H]3CC[C@H](C(=O)NC(C)(C)C)[C@@]3(C)CC[C@@H]2[C@]2(C)C1=CC(=O)[C@@H]1C[C@@H]12` [Compound 34, 17β-N-t-Butylcarbamoyl-6-methyl-6-azaandrost-1α,2α-cyclopropyl-4-en-3-one], the IC50 is 10 to 100 nM.

In the case of `CCN(CC)C(=O)[C@H]1CC[C@H]2[C@@H]3CN(C(C)C)C4=CC(=O)CC[C@]4(C)[C@H]3CC[C@]12C` [Compound 39, 17β-N,N-Diethylcarbamoyl-6-isopropyl-6-azaandrost-4-en-3-one], the IC50 is under 10 nM.

In the case of `CCN(CC)C(=O)[C@H]1CC[C@H]2[C@@H]3CN(CC(C)C)C4=CC(=O)CC[C@]4(C)[C@H]3CC[C@]12C` [Compound 40, 17β-N,N-Diethylcarbamoyl-6-isobutyl-6-azaandrost-4-en-3-one], the IC50 was 100 to 1000 nM.

The molecule `CCN(CC)C(=O)[C@H]1CC[C@H]2[C@@H]3CN(CC4CC4)C4=CC(=O)CC[C@]4(C)[C@H]3CC[C@]12C` [Compound 41, 17β-N,N-Diethylcarbamoyl-6-methylenecyclopropyl-6-azaandrost-4-en-3-one] gave an IC50 of 100 to 1000 nM.

As to `C=CCN1C[C@H]2[C@@H]3CC[C@H](C(=O)N(CC)CC)[C@@]3(C)CC[C@@H]2[C@@]2(C)CCC(=O)C=C12` [Compound 42, 17β-N,N-Diethylcarbamoyl-6-allyl-6-azaandrost-4-en-3-one], the IC50 was in the range of 100 to 1000 nM.

For the molecule `CCN(CC)C(=O)[C@H]1CC[C@H]2[C@@H]3CN(CC(=O)O)C4=CC(=O)CC[C@]4(C)[C@H]3CC[C@]12C` [Compound 44, 17β-N,N-Diethylcarbamoyl-6-(2-acetic acid)-6-azaandrost-4-en-3-one], the IC50 was 100 to 1000 nM.

Regarding `CCN(CC)C(=O)[C@H]1CC[C@H]2[C@@H]3CN(CCC(=O)O)C4=CC(=O)CC[C@]4(C)[C@H]3CC[C@]12C` [Compound 45, 17β-N,N-Diethylcarbamoyl-6-(3-propanoic acid)-6-azaandrost-4-en-3-one], the IC50 was 100 to 1000 nM.

`CCN(CC)C(=O)[C@H]1CC[C@H]2[C@@H]3CN(CCC(=O)OC)C4=CC(=O)CC[C@]4(C)[C@H]3CC[C@]12C` [Compound 46, 17β-N,N-Diethylcarbamoyl-6-(methyl-3-propanoate)-6-azaandrost-4-en-3-one] registered an IC50 of 100 to 1000 nM.

As to `CCN(CC)C(=O)[C@H]1CC[C@H]2[C@@H]3CN(CCCC(=O)O)C4=CC(=O)CC[C@]4(C)[C@H]3CC[C@]12C` [Compound 47, 17β-N,N-Diethylcarbamoyl-6-(4-butanoic acid)-6-azaandrost-4-en-3-one], the IC50 lay in the range of 100 to 1000 nM.

With `CCN(CC)C(=O)[C@H]1CC[C@H]2[C@@H]3CN(CCCCC(=O)O)C4=CC(=O)CC[C@]4(C)[C@H]3CC[C@]12C` [Compound 48, 17β-N,N-Diethylcarbamoyl-6-(5-pentanoic acid)-6-azaandrost-4-en-3-one], the IC50 was 100 to 1000 nM.

For the molecule `CCN(CC)C(=O)[C@H]1CC[C@H]2[C@@H]3CN(CCCCC(=O)OC)C4=CC(=O)CC[C@]4(C)[C@H]3CC[C@]12C` [Compound 49, 17β-N,N-Diethylcarbamoyl-6-(methyl-5-pentanoate)-6-azaandrost-4-en-3-one], the IC50 was 100 to 1000 nM.

Molecule `CCN(CC)C(=O)[C@H]1CC[C@H]2[C@@H]3CN(CCCCCC(=O)O)C4=CC(=O)CC[C@]4(C)[C@H]3CC[C@]12C` [Compound 50, 17β-N,N-Diethylcarbamoyl-6-(6-hexanoic acid)-6-azaandrost-4-en-3-one] returned an IC50 of 100 to 1000 nM.

`CCOC(=O)CCCCCN1C[C@H]2[C@@H]3CC[C@H](C(=O)N(CC)CC)[C@@]3(C)CC[C@@H]2[C@@]2(C)CCC(=O)C=C12` [Compound 51, 17β-N,N-Diethylcarbamoyl-6-(ethyl-6-hexanoate)-6-azaandrost-4-en-3-one] registered an IC50 of 100 to 1000 nM.

`CCN(CC)C(=O)[C@H]1CC[C@H]2[C@@H]3CN(CCCN4C(=O)c5ccccc5C4=O)C4=CC(=O)CC[C@]4(C)[C@H]3CC[C@]12C` [Compound 52, 17β-N,N-Diethylcarbamoyl-6-(3-phthalimidylpropyl)-6-azaandrost-4-en-3-one] yielded an IC50 of 100 to 1000 nM.

`CCN(CC)C(=O)[C@H]1CC[C@H]2[C@@H]3CN(CCCCN4C(=O)c5ccccc5C4=O)C4=CC(=O)CC[C@]4(C)[C@H]3CC[C@]12C` [Compound 53, 17β-N,N-Diethylcarbamoyl-6-(4-phthalimidylbutyl)-6-azaandrost-4-en-3-one]: the IC50 was in the range of 100 to 1000 nM.

`CCN(CC)C(=O)[C@H]1CC[C@H]2[C@@H]3CN(CCOC)C4=CC(=O)CC[C@]4(C)[C@H]3CC[C@]12C` [Compound 54, 17β-N,N-Diethylcarbamoyl-6-(2-methoxyethyl)-6-azaandrost-4-en-3-one] showed an IC50 of 100 to 1000 nM.

`CCN(CC)C(=O)[C@H]1CC[C@H]2[C@@H]3CNC4=C(F)C(=O)CC[C@]4(C)[C@H]3CC[C@]12C` [Compound 70, 17β-N,N-Diethylcarbamoyl-6-azaandrost-4-fluoro-4-en-3-one] displayed an IC50 of 10 to 100 nM.

In turn, `C[C@]12CC[C@H]3[C@@H](CNC4=CC(=O)CC[C@@]43C)[C@@H]1CC[C@@H]2C(=O)NC(c1ccccc1)(c1ccccc1)c1ccccc1` [Compound 71, 17β-N-Triphenylmethylcarbamoyl-6-azaandrost-4-en-3-one] displayed an IC50 of under 10 nM.

`C[C@]12CC[C@H]3[C@@H](CNC4=CC(=O)CC[C@@]43C)[C@@H]1CC[C@@H]2C(=O)Nc1cccc2ccccc12` [Compound 72, 17β-N-1-Napthylcarbamoyl-6-azaandrost-4-en-3-one] yielded an IC50 of under 10 nM.

These data come from patent publication US5543406A, “Inhibitors of 5-α-testosterone reductase” (priority 1994, dated 1996).
